{"source": "patent US12357601B2", "about": "“Composition for inhibiting growth of bacterium having menaquinone synthesis pathway through futalosine or futalosine derivative” (NOSTER INC., priority 2017, dated 2025)", "key": {"[1]": {"test_system": "Helicobacter pylori TK1029 strain", "experiment": "Proliferation inhibitory effect (in vitro) by ED50 measurement, viable count", "assay_type": "cell-based", "procedure": "Helicobacter pylori TK1029 strain (clinical isolate) was cultured in Brucella broth containing 10% FCS and 1×10^6 CFU of bacteria were respectively added to 3 mL of Brain-Heart Infusion Broth (BHI) media (previously added with free fatty acid (stearic acid, oleic acid, linoleic acid, ricinoleic acid, HYA) at 0, 0.5, 5, 50, 500 μg/mL) containing 2% FCS in a 6-well plate. Shaking culture was performed under conditions of temperature 37° C., humidity 100%, microaerobic (5% 02, 10% CO2, 85% N2), the culture medium (0.1 mL) from each well was applied to NISSUI plate, Helicobacter agar medium 15 hr and 25 hr later, and the number of colonies formed after microaerobic culture for 3 days was counted."}, "[2]": {"test_system": "Helicobacter pylori SS1 strain, TN2GF4 strain, ATCC43579 strain, NCTC11637 strain, TY281 strain, TY1345 strain", "experiment": "Proliferation inhibitory effect (in vitro), static culture 3 days, colony count", "assay_type": "cell-based", "details": "fatty acid 200 μM or 1000 μM, 3 days; six strains; compared with linoleic acid", "procedure": "Helicobacter pylori SS1 strain, TN2GF4 strain, ATCC43579 strain, NCTC11637 strain, TY281 strain, TY1345 strain were each inoculated to a 6-well plate containing 3 mL of a liquid medium (Brucella broth added with 10% FCS), and fatty acid (200 μM or 1000 μM) and menaquinone (MK-4) 100 μg/mL were added. After static culture for 3 days at temperature 37° C., microaerobic conditions (5% 02, 10% 002, 85% N2), the culture medium was applied on a Helicobacter agar plate, cultured for 3 days and the resulting colonies were counted (FIG. 1-1 A: SS1 strain, FIG. 1-2 B: TN2GF4 strain, FIG. 1-3 C: ATCC43579 strain, FIG. 1-4 D: NCTC11637 strain, FIG. 1-5 E: TY281 strain, FIG. 1-6 F: TY1345 strain. Item C: control (no addition), Item 1: HYA addition, Item 2: HYA and menaquinone addition, Item 3: linoleic acid addition, Item 4: linoleic acid and menaquinone addition)."}, "[3]": {"test_system": "Campylobacter coli ATCC33559 strain", "experiment": "Proliferation inhibitory effect (in vitro) on Campylobacter coli, absorbance and colony count", "assay_type": "cell-based", "details": "100, 200, 400 μM, 24 hr; concentration dependent; strong compared to linoleic acid"}, "[4]": {"test_system": "CD19 and CD20 expression", "experiment": "Gastric MALT lymphoma model: CD19, CD20 expression in gastric mucosa (real-time RT-PCR)", "assay_type": "in vivo, C57BL/6 female mouse", "details": "200 μM in water; 6 months after infection with Helicobacter suis TKY strain; relative to GAPDH", "procedure": "(§1) Helicobacter suis is suspected to be the cause of the onset of gastric MALT lymphoma. A 5-week-old C57BL/6 female mouse was orally infected only once with a stomach suspension of Helicobacter suis TKY strain-infected mouse and dissected 6 months after the infection, and the number of bacteria in the gastric mucosa was counted according to the method described in Example 5. Water added with HYA (200 μM) was given to the mouse from one week before the infection.\nCD19 and CD20 are cell surface markers for B-cell lymphoma. Using real-time reverse transcription PCR (real-time RT-PCR), the expression levels of CD19 and CD20 were measured. Using NucleoSpin (registered trade mark) RNA Kit (Takara Bio Inc.), RNA was prepared from mouse gastric mucosa. Using PrimeScript™ RT Reagent Kit (Takara Bio Inc.), cDNA was prepared from RNA. For real-time RT-PCR, KAPA SYBR Fast ROX Low qPCR kit (KAPA BIOSYSTEMS Inc.) and QuantStudio7 Flex Real-time PCR System (Thermo Fisher Scientific Inc.) were used.\nThe conditions of 2-step real-time RT-PCR were as follows.\nThe expression level of CD19 or CD20 relative to that of glyceraldehyde-3-phosphate dehydrogenase (GAPDH) was converted to a numerical value and the value was further adjusted to make the average expression of CD19 or CD20 of the non-infection group 1. […]"}, "[5]": {"test_system": "Helicobacter pylori SS1 strain or TN2GF4 strain", "experiment": "Inhibitory effect (in vivo) of fatty acid, number of bacteria in gastric mucosa of infected mice", "parameters": "species or system C57BL/6 female mouse", "procedure": "A 5-week-old C57BL/6 female mouse was orally infected 3 times with Helicobacter pylori SS1 strain or TN2GF4 strain (1-5×10^8 CFU) every other day and dissected at 2 weeks from the final infection day, and the number of bacteria in the gastric mucosa was counted. The measurement and the number of bacteria in the gastric mucosa was performed as follows. First, the greater curvature of the stomach of the mouse was incised with scissors for ophthalmology, and the contents were washed away with phosphate buffered saline (pH 7.4, PBS). Next, the mucous membrane was scraped with a slide glass, 1 mL of PBS was added, the mixture was sandwiched between ground glass parts of two glass slides and evenly crushed to prepare a gastric mucosa suspension. The culture medium was applied on a Helicobacter agar plate, cultured for 3 days and the resulting colonies were counted. Water added with fatty acid (200 μM) (HYA, HYB, KetoA, KetoC, linoleic acid, oleic acid, DHA, EPA) was given to the mice from 1 week before infection. The control was free of fatty acid addition (FIG. 3-1 A: infected with SS1 strain, FIG. 3-2 B: infected with TN2GF4 strain)."}, "[6]": {"test_system": "Ki-67 positive cells", "experiment": "Gastric MALT lymphoma model: Ki-67 positive cells in lymphoid follicle (immunostaining)", "assay_type": "in vivo, C57BL/6 female mouse", "details": "200 μM in water; 6 months after infection with Helicobacter suis TKY strain", "procedure": "as §1\nKi-67 is known as a marker for cell proliferation and cell cycle. Proliferated cells in a tumor tissue were detected by immunostaining with anti-Ki-67 antibody. A part of the stomach was fixed with 10% neutral formalin buffer to prepare a paraffin block, serial sections were cut out using a microtome and Hematoxylin Eosin (HE) staining was performed. Ki-67 (Clone SP6) rabbit monoclonal antibody (Thermo Fisher Scientific Inc.) diluted 1:300 was used as a dilution antibody, Histofine Simple Stain mouse MAX-PO® (NICHIREI BIOSCIENCES INC., Code: 414341) DAB staining (DAKO Inc.) was used as a secondary antibody, and Hematoxylin was used for comparison staining. As the negative control, rabbit IgG antibody (Code No. X 0936 Lot 050 (DAKO Inc.)) was used. […]"}}, "data": [{"compound": "CCCCC/C=C\\CC(O)CCCCCCCCC(=O)O", "note": "(stereo not drawn) [HYA, 10-hydroxy-cis-12-octadecenoic acid]", "values": [{"measurement": "ED50 value times lower than that of ricinoleic acid", "setting": "[1]; 15 hr after culturing", "value": "about 10 times"}, {"measurement": "ED50 value, 15 hr later", "setting": "[1]; 15 hr shaking culture, BHI 2% FCS, viable count", "value": 0.5, "unit": "µg/mL"}, {"measurement": "ED50 values compared with the other fatty acids", "setting": "[1]; 25 hr after culturing", "value": "remarkably lower than or the same level as"}, {"measurement": "ED50 value, 25 hr later", "setting": "[1]; 25 hr shaking culture, BHI 2% FCS, viable count", "value": 0.5, "unit": "µg/mL"}, {"measurement": "proliferation of Helicobacter pylori (colony count)", "setting": "[2]", "value": "suppressed proliferation"}, {"measurement": "proliferation of Campylobacter coli ATCC33559 strain", "setting": "[3]", "value": "inhibited proliferation"}, {"measurement": "CD19 relative expression level, compared to the non-administration group", "setting": "[4]", "value": "significantly suppressed"}, {"measurement": "CD20 relative expression level, compared to the non-administration group", "setting": "[4]", "value": "significantly suppressed"}, {"measurement": "number of Helicobacter pylori in the gastric mucosa, compared to the control", "setting": "[5]; 200 μM in water from 1 week before infection, 2 weeks from final infection, both SS1 and TN2GF4 strain", "value": "significantly suppressed"}, {"measurement": "suppressive action compared to HYB, KetoA, KetoC, linoleic acid, oleic acid, DHA and EPA", "setting": "[5]; 200 μM in water, SS1 and TN2GF4 strain infected mice", "value": "strong suppressive action"}, {"measurement": "increase in the number of Ki-67 positive cells, compared to the non-administration group", "setting": "[6]", "value": "significantly suppressed"}]}]}
